Patent US20050042747A1, “Hivgp120-induced bob/gpr15 activation” (priority 2001, published 2005)

Tests used:
Assay type in all cases: cell-based, human
HT-29 cells = experiment: Calcium signaling in HT-29 cells (Fluo 4, confocal microscope)
Method: HT-29 cells (from ATCC) were grown in DMEM-F12 with 10% bovine calf serum, and were used 24-48 hours after plating. The Ghost (3) cells were obtained from the AIDS Research and Reference Reagent Program, and were grown DMEM with 10% bovine calf serum supplemented with 500 μg/ml G418, 100 μg/ml hygromycin, and 1 μg/ml puromycin.^27 These cells were used 24 to 96 hours after plating.
Calcium studies were done on HT-29 cells and Ghost (3) cells loaded with Fluo 4. The cells were placed in Locke's buffer containing 5 μg/ml Fluo 4 AM ester (Molecular Probes) for 20 to 30 minutes, then in Locke's buffer for an additional 30 minutes before testing. Various concentrations of gp120IIIB (X4 trophic), gp120CM235 (R5 trophic), gp120mN (X4 trophic), gp12093TH975 (nonsyncytium-inducing primary isolate from an asymptomatic subject, trophism undetermined but likely R5), and gp120SF2 (X4R5 trophic), ranging from 10 nM to less than 1 pM, were added in Locke's buffer.^6 The gp120 proteins were obtained from the AIDS Research Reagent Referral Program. Some HT-29 cells were given one of the following pretreatments: 50 μg/ml anti-Bob37 overnight, 1 μg/ml pertussis toxin overnight, or 4.6 μg/ml U73122 for one hour. With the HT-29 cells only, similar tests were also performed with SDF-1, MIP-1α, MIP-1β, and RANTES rather than gp120. The cells were visualized every 4 seconds in a confocal microscope, using 488 nm argon laser excitation and detection filters appropriate for fluorescein-like dyes.
For the first two or three days after plating, gp120 induces an immediate (within 4 seconds) calcium flux in undifferentiated HT-29 cells. The cells had previously been loaded with Fluo-4 AM ester (Molecular Probes, Eugene Oreg.) 5 micrograms/ml in the presence of Pleuronic F-127 0.02% in Locke's buffer for 30 minutes, then incubated at room temperature for an additional 30 minutes. Gp120IIIB was added while the cells were on an inverted confocal microscope using a 488 nm argon laser, with detection filters suitable for fluorescein-like dyes. […]

[1] = tested on: microtubules in HT-29 cells; experiment: Microtubule staining (acetylated tubulin) in HT-29 cells; details: one hour after gp120 treatment
Method: To examine the microtubules, HT-29 cells were treated with 10 nM gp120CM235 or 50 pM gp120IIIB, then fixed one hour later in 4 g/100 ml paraformaldehyde PBS, then stained with mouse anti acetylated tubulin (5 μg/ml, Sigma) by a method similar to that given above. Some cells were pretreated with 50 μg/ml antiBob37 overnight, 1 μg/ml pertussis toxin overnight, or 4.6 μg/ml U73122 for one hour before the gp120 was added. Untreated cells were also stained.
Similarly treated undifferentiated HT-29 cells (except that Fluo-4 was not added) were fixed in paraformaldehyde phosphate buffered saline one hour after gp120 treatment.

[2] = tested on: peripheral blood mononuclear cells; experiment: gp120-induced calcium flux in peripheral blood mononuclear cells
Method: Normal human peripheral blood mononuclear cells were isolated by Ficoll gradient centrifugation, and loaded with the calcium sensitive dye Fluo-4. HIV gp120IIIB induced strong calcium fluxes in the range of 7 nM to 50 pM, and there was a weaker signal at 5 pM.
Experiments corresponding to those with HT-29 cells were done with peripheral blood mononuclear cells. These were isolated from the blood of a healthy, HIV-uninfected person by a Ficoll-Hypaque techique (Histopaque, Sigma), then loaded with Fluo-4 by a technique nearly identical to that used for HT-29 cells, except that Hank's buffer was used rather than Locke's, and the cells were centrifuged (2,000 g for 10 minutes) just before calcium flux measurements to improve adherence. Gp120-induced calcium fluxes were documented with as little as 5 pM gp120IIIB.

For “gp120IIIB: HIV-1 envelope surface protein gp120 of strain IIIB (X4 trophic), from the AIDS Research Reagent Referral Program”, the “calcium signaling in HT-29 cells, in words” value (HT-29 cells) was “induced an immediate calcium signal”, the “minimal concentration causing calcium signaling” value (HT-29 cells; undifferentiated HT-29 cells, serial dilution) was 1 pM and the “effect on acetylated tubulin-staining microtubules” value [1] was “marked loss of microtubules”. For the same substance, the “cells substantially brighter after treatment (increase in intracellular calcium)” value ([2]; 50 picomolar, 4 seconds after treatment, Fluo-4) was “Approximately 30%” and the “lowest gp120IIIB concentration giving calcium flux” value ([2]; freshly isolated cells) was 5 pM.
